In patent US9926292B2, “Pyridinyl derivatives, pharmaceutical compositions and uses thereof” (Boehringer Ingelheim International GmbH, priority 2016, dated 2018):

Columns and labels:
pigs = settings: aminoguanidine 100 mg/kg and gavage of histamine 2 mg/kg; cited from earlier work
AOC3 = molecular target: T1, AOC3 (Homo sapiens, UniProt Q16853); experiment: AOC3 biochemical assay (MAO-Glo); settings: Table 1; read-out: AOC3 IC50
T1 construct: expressed in transfected cells; host or cells: CHO cells
T1 sequence (Q16853 1-763): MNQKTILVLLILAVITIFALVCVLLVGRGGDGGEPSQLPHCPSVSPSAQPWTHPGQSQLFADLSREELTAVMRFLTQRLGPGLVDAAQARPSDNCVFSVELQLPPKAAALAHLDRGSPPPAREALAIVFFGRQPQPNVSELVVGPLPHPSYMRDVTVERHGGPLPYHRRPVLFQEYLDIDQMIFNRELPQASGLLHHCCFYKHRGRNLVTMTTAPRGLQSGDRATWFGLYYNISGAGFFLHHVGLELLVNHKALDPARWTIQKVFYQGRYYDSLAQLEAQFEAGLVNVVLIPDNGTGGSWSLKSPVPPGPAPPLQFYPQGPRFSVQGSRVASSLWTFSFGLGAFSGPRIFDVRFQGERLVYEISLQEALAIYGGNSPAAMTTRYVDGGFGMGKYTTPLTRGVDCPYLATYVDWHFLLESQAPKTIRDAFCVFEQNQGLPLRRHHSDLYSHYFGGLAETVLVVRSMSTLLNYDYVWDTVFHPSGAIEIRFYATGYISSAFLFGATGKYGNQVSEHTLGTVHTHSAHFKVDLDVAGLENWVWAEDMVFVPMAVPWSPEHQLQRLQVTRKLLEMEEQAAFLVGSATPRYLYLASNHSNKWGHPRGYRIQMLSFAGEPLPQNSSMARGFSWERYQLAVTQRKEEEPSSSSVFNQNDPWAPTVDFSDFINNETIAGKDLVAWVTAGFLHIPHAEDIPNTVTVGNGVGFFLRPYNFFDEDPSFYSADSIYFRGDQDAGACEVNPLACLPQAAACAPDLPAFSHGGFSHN
Method: As substrate a derivate of the beetle luciferin ((4S)-4,5-dihydro-2-(6-hydroxybenzothiazolyl)-4-thiazole-carboxylic acid) is used, which is oxidized at a primary amine moiety. After a spontaneous elimination and a catalyzed esterase reaction, the turnover of the luciferine by the luciferase is recorded as a signal of AOC3 activity.
Recombinant CHO cells, overexpressing the human (1500 cells/well), mouse (1000 cells/well) or rat (500 cells/well) AOC3 enzyme are diluted in reaction buffer and added in a volume of 15 μL to the wells. After incubation for 20 minutes at 37° C., 2 μL of MAO substrate (dissolved in DMSO at 16 mM, adjusted to assay concentration in reaction buffer to a final assay concentration of 20 μM) is added and further incubated for 60 minutes at 37° C. The turnover of the substrate is determined by the addition of 20 μL of the detection-mix which was generated by the addition of reconstitution buffer with esterase (PROMEGA, #V1402) to the luciferine detection reagent (PROMEGA, #V1402).

AOC1 = molecular target: T2, AOC1 (Homo sapiens, UniProt P19801); experiment: AOC1 biochemical assay (Amplex Red); settings: Table 1; read-out: AOC1 IC50
T2 construct: purchased R&D Systems 8297-AO-010
T2 sequence (P19801 20-751): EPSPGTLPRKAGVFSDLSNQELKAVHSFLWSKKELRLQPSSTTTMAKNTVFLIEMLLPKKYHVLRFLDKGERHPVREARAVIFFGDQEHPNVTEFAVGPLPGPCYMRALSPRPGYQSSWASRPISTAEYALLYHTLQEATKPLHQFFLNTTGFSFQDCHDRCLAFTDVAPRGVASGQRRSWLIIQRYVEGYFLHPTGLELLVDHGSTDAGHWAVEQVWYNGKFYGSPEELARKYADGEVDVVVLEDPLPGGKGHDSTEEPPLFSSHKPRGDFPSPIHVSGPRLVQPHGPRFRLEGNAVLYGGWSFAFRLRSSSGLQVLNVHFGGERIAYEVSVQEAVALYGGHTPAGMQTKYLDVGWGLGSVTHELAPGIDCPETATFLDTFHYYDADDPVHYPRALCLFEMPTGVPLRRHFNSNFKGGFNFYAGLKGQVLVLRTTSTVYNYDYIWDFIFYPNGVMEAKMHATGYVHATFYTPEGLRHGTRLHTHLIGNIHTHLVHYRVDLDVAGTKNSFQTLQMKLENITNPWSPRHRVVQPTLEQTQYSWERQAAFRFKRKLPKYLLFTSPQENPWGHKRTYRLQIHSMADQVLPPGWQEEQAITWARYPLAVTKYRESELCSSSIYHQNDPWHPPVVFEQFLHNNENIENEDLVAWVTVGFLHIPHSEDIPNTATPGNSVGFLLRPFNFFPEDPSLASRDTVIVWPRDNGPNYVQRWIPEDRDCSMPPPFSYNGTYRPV
Source text: The Amplex® Red Assay (available from Thermo Fisher Scientific) provides a sensitive method for the detection of H2O2 generated during enzymatic reactions like the amine oxidation catalyzed by AOC1.

| Structure (SMILES) | death (pigs) | IC50 (AOC3) [nM] | IC50 (AOC1) [nM] | melting point [°C] |
| --- | --- | --- | --- | --- |
| N=C(N)NN [aminoguanidine] | 3 out of 15 | – | – | – |
| CC(F)(F)COc1ncc(-c2cccc(COC(=O)NC(=N)N)n2)cn1 [Example 20, [6-[2-(2,2-difluoropropoxy)pyrimidin-5-yl]-2-pyridyl]methyl N-carbamimidoylcarbamate] | – | 5 | 7210 | 195 |
| N=C(N)NC(=O)OCc1cccc(-c2cnc(OCc3ccon3)nc2)n1 [Example 24, [6-[2-(isoxazol-3-ylmethoxy)pyrimidin-5-yl]-2-pyridyl]methyl N-carbamimidoylcarbamate] | – | 4 | 1590 | 183 |
